Source: patent US11920125B2, “Methods and agricultural compositions for preventing or controlling plant diseases” (Tenfold Technologies, LLC, priority 2017, dated 2024)

How the values were obtained:
[1] = test system: Rhizoctonia; test: Rhizoctonia control field trial, soybean seed treatment, Fisher, Indiana; conditions: isolates (GB6-M) 20 μl WB/Seed; Fludioxonil 0.02 mg/Seed
Protocol: For all treatments, the target concentration is 20 μl water/seed, which corresponds to 60 ml/460 g seeds. Sixty (60) ml liquid was added to every 460 g soybean seeds for a total of six times. Each time, 10 ml of liquid was added to the 460 g seeds and mixed for 15 seconds. Coated seeds were dried for 5-10 minutes under ventilation between the additions. Final coated seeds were dried overnight in a biocontainment hood.

[2] = test system: R. solani; test: Pot assay, microbial drench treatments on Ozark soybean seedlings in pots infested with R. solani; format: in vivo; conditions: chemical control at 0.06 g/lb of soybean seeds
Protocol: In pot assays, WB or its dilutions were applied as a seed coating or as a a simulated in-furrow application in pots containing soil inoculated with the pathogen. Measurements of the percent of emergence, plant growth stage, and disease rating were used to assess biocontrol efficacy. Whole broth (WB) or WB dilutions were applied either as a simulated in-furrow treatment or a seed treatment applied to soybean seed. For simulated in-furrow application, 1 ml of biocontrol treatment or negative and positive controls was pipetted over the seed placed in 0.5 cm deep depressions made in peat-lite mix potting medium inoculated with the pathogen and prior to covering with the potting medium. Seed treatments were applied by coating soybean seed with the biocontrol and control treatments prior to planting into an inoculated potting medium. The negative control was reverse osmosis-purified (RO) water applied to seed in inoculated pots. The positive controls were Satori® (azoxystrobin) and Subtilex® (Bacillus subtilis strain MBI 600) applied at the labelled rates. In addition, a mock-inoculated treatment without pathogen inoculation was included in each test. Inoculation was done by thoroughly mixing 1 L of a slurry, made by blending two fully Rhizoctonia solani-colonized potato dextrose cultures in 200 ml RO water, with 4 L peat-lite mix (e.g., Sunshine LC1 potting mix) using a cement mixer. Experimental units were five seeds per pot and the treatments were arranged in a completely random design with four replicates. The tests were conducted on light carts illuminated with LED lamps (16 hour day/8 hour night) for 7-10 days at 26-28° C. The pots were irrigated as needed with RO water. Measurements of the percent emergence, plant growth stage (Munger, et al., 2008), and disease severity rating (0, no disease, to 5, dead plant) were collected from each plant at the end of each test, and the means of the experimental units were analyzed using JMP version 11 (SAS, Cary, NC).
In a separate pot assay, treatments were applied directly as a drench.

[3] = test system: Pythium irregulare; test: Pot assay, bacterial isolates with or without fungicide Satori for control of Pythium irregulare on soybean; format: in vivo
Protocol: In order to test the performance of bacterial isolates, with or without the presence of the fungicide Satori® (active ingredient is azoxystrobin), samples were applied as simulated in-furrow by pipetting in 1 ml over each seed after the seeds were placed in a 1 cm deep depression. The combination was prepared by combining each bacterial whole broth (MS1479, MS2379, MS2414, or MS2820) (which was grown in GB6-M8) with an equal volume (1:1) of Satori®. The agar slurry inoculation method was used after blending two agar cultures of P. irregulare in 200 ml RO water and then mixed with 4 L of peat-lite mix in a cement mixer. Five soybean seeds (genotype WS2620) were sown in each pot with 1 ml treatment over each seed (in-furrow simulation). Then the pots were incubated at 16° C. for 1 week and then 23° C. for another week before evaluation. The disease severity scale: 1=80-100%, 2=60-79%, 3=40-59%, 4=20-39%, 5=1-19%, and 6=0% damaged roots. (Table 16).

| Compound | Stand (No of plants per acre) at 11 DAP [1] | Stand (No of plants per acre) at 16 DAP [1] | Stand (No of plants per acre) at 49 DAP [1] | Total # Diseased per plot (187.5 ft^2 per plot area) [1] | Vigor Rating (1-5: 1 = worst, 5 = best) [1] | Disease Rating ([2]; 0 = no disease to 5 = plant dead, 7 days) | # Emerged Plants ([2]; 7 days after sowing, of four seeds per pot) | Plant Growth Stage ([2]; scale 1-4, 7 days) | Plant development ([3]; five soybean seeds per pot, 1 ml treatment over each seed) | Plant emergence ([3]; five soybean seeds per pot, 1 ml treatment over each seed, 16° C. 1 week then 23° C. 1 week) | Disease severity ([3]; scale 1=80-100%, 2=60-79%, 3=40-59%, 4=20-39%, 5=1-19%, 6=0% damaged roots (higher = healthier)) |
| --- | --- | --- | --- | --- | --- | --- | --- | --- | --- | --- | --- |
| N#Cc1c[nH]cc1-c1cccc2c1OC(F)(F)O2 [Fludioxonil] | 2614 plants per acre | 20038 plants per acre | 16939 plants per acre | 7.3 | 1.8 | 3.0^F | 2.0^B | 2.2^B |  |  |  |
| COCC(=O)N(c1c(C)cccc1C)C(C)C(=O)OC (centres unmarked) [Metalaxyl] |  |  |  |  |  |  |  |  | 12.55 | 5 | 4.35 |
